Legend:
Assay type in all cases: cell-based
[1] = biological target: T1, carnitine transporter comprising the amino acid sequence SEQ ID NO: 1 (Homo sapiens, UniProt Q695T7); experiment: Tracer flux transport measurement in Xenopus laevis oocytes injected with cRNA comprising SEQ ID NO: 4; settings: for kinetics of transport compared with the substrate L-carnitine (FIG. 2): SEQ ID NO: 1, other substrates
T1 construct: expressed in transfected cells; host or cells: Xenopus laevis oocytes injected with cRNA
T1 sequence (Q695T7 1-634): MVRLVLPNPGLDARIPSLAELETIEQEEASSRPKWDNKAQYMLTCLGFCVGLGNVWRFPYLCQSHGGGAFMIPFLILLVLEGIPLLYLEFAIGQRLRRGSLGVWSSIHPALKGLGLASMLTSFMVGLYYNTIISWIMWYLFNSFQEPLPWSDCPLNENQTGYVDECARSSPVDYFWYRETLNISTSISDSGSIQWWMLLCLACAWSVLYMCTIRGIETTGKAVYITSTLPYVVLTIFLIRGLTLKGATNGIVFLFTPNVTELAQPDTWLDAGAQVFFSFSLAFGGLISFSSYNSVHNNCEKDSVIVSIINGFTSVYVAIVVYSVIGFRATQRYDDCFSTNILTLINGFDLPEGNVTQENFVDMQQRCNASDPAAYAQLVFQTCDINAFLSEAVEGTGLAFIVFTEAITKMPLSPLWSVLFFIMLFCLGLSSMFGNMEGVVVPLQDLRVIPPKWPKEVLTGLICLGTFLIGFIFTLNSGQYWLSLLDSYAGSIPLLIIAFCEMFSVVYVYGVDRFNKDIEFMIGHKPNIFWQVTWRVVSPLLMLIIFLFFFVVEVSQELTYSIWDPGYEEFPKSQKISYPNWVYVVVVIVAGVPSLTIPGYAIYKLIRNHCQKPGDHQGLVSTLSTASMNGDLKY
Description: The transport measurements of radioactively labeled compounds were executed using Xenopus laevis oocytes in the so-called “tracer flux method”, wherein the transport rate of substrates across the oocyte membrane into the cytosol is determined.
A Xenopus laevis oocyte was injected with a cRNA molecule comprising SEQ ID NO: 4.
Injected oocytes were kept in the culture medium ORi comprising gentamycin (50 mg/L) at 18° C. until the measurement of substrate uptake. Injured, acutely altered or later heavily damaged cells were discarded.
After 72 hours the oocyte was used for screening for a carnitine transporter agonist or antagonist.
Polysterene wells treated with oocyte homogenate were filled with 200 μl substrate solution. The oocytes were first washed two times with ORi solution, before use in the determination. 8 to 10 oocytes were used in a reaction mixture, in order to enable statistical evaluations. After the addition of the oocytes into the substrate solution the reaction mixture was softly mixed and incubated. The incubation was carried through at 22° C. for 1 hour. In order to stop the reaction, 1 ml of ice cold ORi was added.
The oocytes were washed four times in 15 ml ice cold ORi. Subsequently the oocytes were individually transferred into a 6 ml counter vial. The oocyte plasma membrane was disrupted by adding 100 μl […] solution. The vials were slightly agitated to disrupt the plasma membrane. The plasma membrane was completely disrupted by agitation for 30 to 45 minutes. The lysates were mixed with 2 ml of a scintillation cocktail. The radioactivity of the lysates was determined in a liquid scintillation counter comprising a correction for the luminescence and an external standard. Each vial was counted for 5 minutes.
In order to determine the substrate concentration after the dropping in of the oocytes, 2×10 μl solution were removed from the reaction mixture, 100 μl 5% SDS solution was added and evaluations with the counter were carried out. The obtained values were considered in the calculation of the transport rates.
For the determination of concentration-dependent substrate uptake serial dilutions of the investigated substrate were prepared and the radioactivity was distributed, such that in each reaction mixture between 10000 and 20000 cpm were counted in the supernatant. For the KM determination the substrate uptake was measured for 1 hour. In addition, the measurement was carried through using H2O-injected oocytes, in order to determine the background, i.e. the unspecific substrate uptake, for example mediated by diffusion or by endogenous transport proteins. The transport rates were calculated and graphically plotted against the substrate concentration and adapted mathematically according to the Michaelis-Menten equation.

[2] = biological target: T2, carnitine transporter comprising the amino acid sequence SEQ ID NO: 3 (Rattus norvegicus, UniProt Q2A865, F276Y/R32K/S186P); experiment: Transport activity of the rat kidney and intestinal carnitine transporter
T2 sequence (Q2A865 1-634 R32K/S186P/F276Y): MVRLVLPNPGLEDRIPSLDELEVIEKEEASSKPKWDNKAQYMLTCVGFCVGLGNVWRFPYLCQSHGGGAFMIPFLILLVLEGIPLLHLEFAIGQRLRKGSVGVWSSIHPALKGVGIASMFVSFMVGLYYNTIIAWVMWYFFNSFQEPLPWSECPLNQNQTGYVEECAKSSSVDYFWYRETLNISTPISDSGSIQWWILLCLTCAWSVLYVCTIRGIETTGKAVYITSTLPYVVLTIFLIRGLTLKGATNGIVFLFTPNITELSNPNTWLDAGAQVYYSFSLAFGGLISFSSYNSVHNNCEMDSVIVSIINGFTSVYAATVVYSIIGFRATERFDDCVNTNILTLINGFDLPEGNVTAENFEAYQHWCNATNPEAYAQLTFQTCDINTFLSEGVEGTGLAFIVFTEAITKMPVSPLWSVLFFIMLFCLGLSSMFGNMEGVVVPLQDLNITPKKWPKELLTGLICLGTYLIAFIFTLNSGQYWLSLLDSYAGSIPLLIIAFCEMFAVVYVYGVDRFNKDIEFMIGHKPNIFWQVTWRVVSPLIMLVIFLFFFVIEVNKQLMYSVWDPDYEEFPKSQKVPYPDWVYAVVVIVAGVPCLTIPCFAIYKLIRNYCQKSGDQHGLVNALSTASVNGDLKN

[3] = biological target: T3, carnitine transporter comprising the amino acid sequence SEQ ID NO: 2 (Mus musculus, UniProt Q9D687); experiment: Transport activity of the mouse kidney and intestinal carnitine transporter
T3 sequence (Q9D687 1-634): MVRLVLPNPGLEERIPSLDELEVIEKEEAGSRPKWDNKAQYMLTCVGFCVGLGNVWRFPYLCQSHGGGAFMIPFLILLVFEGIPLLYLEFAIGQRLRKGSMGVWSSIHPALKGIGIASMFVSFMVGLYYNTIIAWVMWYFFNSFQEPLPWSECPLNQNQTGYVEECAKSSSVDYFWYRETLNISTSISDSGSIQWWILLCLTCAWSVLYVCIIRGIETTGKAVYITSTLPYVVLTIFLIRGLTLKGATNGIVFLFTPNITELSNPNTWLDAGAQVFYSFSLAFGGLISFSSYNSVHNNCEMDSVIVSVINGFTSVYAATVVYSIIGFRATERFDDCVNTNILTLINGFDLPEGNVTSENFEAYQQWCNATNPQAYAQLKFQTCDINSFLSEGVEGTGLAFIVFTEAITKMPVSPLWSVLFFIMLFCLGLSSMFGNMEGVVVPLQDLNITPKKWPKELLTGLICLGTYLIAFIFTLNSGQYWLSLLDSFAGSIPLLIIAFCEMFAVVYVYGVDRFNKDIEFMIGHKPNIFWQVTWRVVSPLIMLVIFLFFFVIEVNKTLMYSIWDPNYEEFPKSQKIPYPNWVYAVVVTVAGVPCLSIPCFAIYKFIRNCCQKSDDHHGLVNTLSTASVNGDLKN

SMILES: NCCc1c[nH]c2ccc(O)cc12 [serotonin]
- kinetics of transport compared with the substrate L-carnitine (FIG. 2) [1]: comparable kinetics

SMILES: C[n+]1ccc(-c2ccccc2)cc1 [methylphenylpyridinium]
- kinetics of transport compared with the substrate L-carnitine (FIG. 2) [1]: comparable kinetics

SMILES: C[N+](C)(C)C[C@H](O)CC(=O)[O-] [L-carnitine]
- kinetics of transport compared with FIG. 2 (SEQ ID NO: 1) [2]: comparable kinetics
- kinetics of transport compared with FIG. 2 (SEQ ID NO: 1) [3]: comparable kinetics

SMILES: CN(CC(=O)O)C(=N)N [creatine]
- transport of the substrate [2]: transport
- transport of the substrate [3]: transport
- transport of the substrate ([1]; SEQ ID NO: 1): transport
- kinetics of transport compared with the substrate L-carnitine (FIG. 2) [1]: comparable kinetics

SMILES: NC[C@H](O)c1ccc(O)c(O)c1 [noradrenaline]
- kinetics of transport compared with the substrate L-carnitine (FIG. 2) [1]: comparable kinetics
